# Data reported in the NIST ThermoML archive (doi:10.1016/j.jct.2012.06.009).
# ± gives the expanded uncertainty stated by the source.
# Assay: activity coefficient (dimensionless); of the first substance listed, at infinite dilution; xn = mol fraction of the nth substance listed
# Details: 101 kPa, Liquid, Chromatography, x1 = 0
SMILES,activity coefficient (314.1 K),activity coefficient (314.24 K),activity coefficient (333.26 K),activity coefficient (333.38 K),activity coefficient (353.25 K),activity coefficient (353.3 K),further results
ClCc1ccccc1 [(chloromethyl)benzene] + CCCCCCCCCCCC(=O)O,,,,,,,activity coefficient (358.06 K): 1.71 ± 0.15; activity coefficient (358.1 K): 1.71 ± 0.15
CCCCCC [hexane] + CCCCCCCCCCCCCCCC(=O)O,,,,,,,activity coefficient (340.19 K): 1.29 ± 0.11; activity coefficient (348.01 K): 1.3 ± 0.11; activity coefficient (358.22 K): 1.3 ± 0.11
"ClCCCl [1,2-dichloroethane] + CCCCCCCCCCCCCC(=O)O",1.21 ± 0.1,1.24 ± 0.1,1.2 ± 0.099,1.18 ± 0.098,1.13 ± 0.094,1.13 ± 0.093,
CC(C)O [propan-2-ol] + CCCCCCCCCCCCCCCC(=O)O,,,,,,,activity coefficient (340.19 K): 1.47 ± 0.12; activity coefficient (348.01 K): 1.41 ± 0.12; activity coefficient (358.32 K): 1.29 ± 0.11
"ClCCCl [1,2-dichloroethane] + CCCCCCCCCC(=O)O",1.45 ± 0.12,1.5 ± 0.13,1.35 ± 0.11,1.4 ± 0.12,,1.27 ± 0.11,
Cc1ccccc1 [toluene] + CCCCCCCCCCCC(=O)O,1.06 ± 0.088,1.08 ± 0.089,1.07 ± 0.088,1.04 ± 0.086,,1.05 ± 0.087,
CCOC(C)=O [ethyl acetate] + CCCCCCCCCCCC(=O)O,1.37 ± 0.12,1.36 ± 0.11,,1.28 ± 0.11,1.2 ± 0.1,1.21 ± 0.1,
CC(C)O [propan-2-ol] + CCCCCCCCCC(=O)O,1.56 ± 0.13,1.58 ± 0.13,1.35 ± 0.11,1.36 ± 0.11,1.2 ± 0.1,1.15 ± 0.097,
CCc1ccccc1 [ethylbenzene] + CCCCCCCCCC(=O)O,,,1.28 ± 0.11,,,1.22 ± 0.1,activity coefficient (333.35 K): 1.3 ± 0.11
CCCCO [butan-1-ol] + CCCCCCCCCCCC(=O)O,,1.7 ± 0.14,1.54 ± 0.13,1.51 ± 0.13,1.34 ± 0.11,1.36 ± 0.11,
CCCCO [butan-1-ol] + CCCCCCCCCCCCCCCC(=O)O,,,,,,,activity coefficient (340.19 K): 1.65 ± 0.14; activity coefficient (348.01 K): 1.55 ± 0.13; activity coefficient (358.32 K): 1.43 ± 0.12
COc1ccccc1 [anisole] + CCCCCCCCCC(=O)O,,,,,1.43 ± 0.12,1.45 ± 0.12,
ClCc1ccccc1 [(chloromethyl)benzene] + CCCCCCCCCCCCCC(=O)O,,,1.61 ± 0.14,1.6 ± 0.14,1.57 ± 0.13,1.55 ± 0.13,
CCCCO [butan-1-ol] + CCCCCCCCCC(=O)O,,,1.48 ± 0.13,,1.34 ± 0.11,1.32 ± 0.11,activity coefficient (333.35 K): 1.53 ± 0.13
Clc1ccccc1 [chlorobenzene] + CCCCCCCCCC(=O)O,,,1.16 ± 0.096,1.18 ± 0.098,1.17 ± 0.097,1.15 ± 0.096,
ClC=C(Cl)Cl [trichloroethene] + CCCCCCCCCCCCCCCC(=O)O,,,,,,,activity coefficient (340.19 K): 0.831 ± 0.069; activity coefficient (348.01 K): 0.826 ± 0.069; activity coefficient (358.22 K): 0.831 ± 0.069
CCCCCC [hexane] + CCCCCCCCCC(=O)O,1.75 ± 0.15,1.77 ± 0.15,1.73 ± 0.15,1.7 ± 0.14,,1.65 ± 0.14,
CCCO [propan-1-ol] + CCCCCCCCCC(=O)O,1.89 ± 0.16,1.92 ± 0.17,1.57 ± 0.13,1.6 ± 0.14,1.41 ± 0.12,1.35 ± 0.12,
C1CCCCC1 [cyclohexane] + CCCCCCCCCCCCCCCC(=O)O,,,,,,,activity coefficient (340.19 K): 1.03 ± 0.085; activity coefficient (348.01 K): 1.02 ± 0.084; activity coefficient (358.22 K): 1.01 ± 0.083
CCO [ethanol] + CCCCCCCCCCCCCC(=O)O,1.82 ± 0.16,1.79 ± 0.15,1.67 ± 0.14,1.67 ± 0.14,1.53 ± 0.13,1.52 ± 0.13,
CCCCCCC [heptane] + CCCCCCCCCCCCCCCC(=O)O,,,,,,,activity coefficient (340.19 K): 1.4 ± 0.12; activity coefficient (348.01 K): 1.38 ± 0.12; activity coefficient (358.22 K): 1.37 ± 0.12
Clc1ccccc1 [chlorobenzene] + CCCCCCCCCCCC(=O)O,1.11 ± 0.091,1.12 ± 0.092,1.08 ± 0.089,,1.07 ± 0.088,,activity coefficient (343.65 K): 1.07 ± 0.089
CO [methanol] + CCCCCCCCCCCCCCCC(=O)O,,,,,,,activity coefficient (340.17 K): 2.09 ± 0.18; activity coefficient (347.93 K): 1.94 ± 0.17; activity coefficient (358.23 K): 1.8 ± 0.15
CCOC(C)=O [ethyl acetate] + CCCCCCCCCCCCCC(=O)O,1.24 ± 0.1,1.21 ± 0.1,1.19 ± 0.099,1.19 ± 0.099,1.13 ± 0.094,1.12 ± 0.093,
